Holding throughout (experiment): Kinase selectivity, P33-radiolabeled assay
Type in all cases: biochemical
Details in all cases: 10 μM ATP

One experiment has as its target T1, NEK9 (Homo sapiens, UniProt Q8TD19).
T1 construct: purchased Reaction Biology Corp
T1 sequence (Q8TD19 1-979): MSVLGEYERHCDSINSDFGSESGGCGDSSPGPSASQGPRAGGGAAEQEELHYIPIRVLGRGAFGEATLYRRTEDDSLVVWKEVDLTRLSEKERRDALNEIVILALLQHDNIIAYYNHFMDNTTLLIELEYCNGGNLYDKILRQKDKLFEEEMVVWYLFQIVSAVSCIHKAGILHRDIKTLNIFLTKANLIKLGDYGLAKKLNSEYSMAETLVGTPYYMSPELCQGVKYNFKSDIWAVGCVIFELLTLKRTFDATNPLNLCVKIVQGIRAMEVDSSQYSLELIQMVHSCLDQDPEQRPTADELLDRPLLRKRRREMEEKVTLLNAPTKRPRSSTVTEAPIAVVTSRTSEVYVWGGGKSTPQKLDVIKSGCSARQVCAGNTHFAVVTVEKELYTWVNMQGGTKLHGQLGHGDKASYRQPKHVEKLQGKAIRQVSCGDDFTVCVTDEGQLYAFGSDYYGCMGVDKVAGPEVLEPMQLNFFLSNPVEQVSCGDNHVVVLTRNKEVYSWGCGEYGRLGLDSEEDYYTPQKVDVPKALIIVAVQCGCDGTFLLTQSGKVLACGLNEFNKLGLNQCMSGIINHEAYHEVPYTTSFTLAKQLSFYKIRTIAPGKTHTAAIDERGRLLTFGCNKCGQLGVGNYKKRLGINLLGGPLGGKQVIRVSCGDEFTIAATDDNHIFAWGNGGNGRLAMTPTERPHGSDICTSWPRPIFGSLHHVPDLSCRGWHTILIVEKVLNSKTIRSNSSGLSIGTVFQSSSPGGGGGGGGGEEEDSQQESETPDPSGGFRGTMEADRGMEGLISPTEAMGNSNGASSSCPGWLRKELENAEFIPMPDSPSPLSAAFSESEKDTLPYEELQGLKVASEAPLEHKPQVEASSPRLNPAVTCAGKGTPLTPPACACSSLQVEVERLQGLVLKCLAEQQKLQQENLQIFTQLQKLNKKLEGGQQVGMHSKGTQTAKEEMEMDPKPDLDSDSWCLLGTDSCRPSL
The method in brief: (§1)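 Duplicate single-concentration testing used 10 μM compound. The ATP concentration was also 10 μM.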

Another experiment has as its target T2, PKCd (Homo sapiens, UniProt Q05655).
T2 construct: purchased Reaction Biology Corp
Put shortly:
as §1

For another experiment, the target named is T3, ARAF (Homo sapiens, UniProt P10398).
T3 construct: purchased Reaction Biology Corp
T3 sequence (P10398 1-606): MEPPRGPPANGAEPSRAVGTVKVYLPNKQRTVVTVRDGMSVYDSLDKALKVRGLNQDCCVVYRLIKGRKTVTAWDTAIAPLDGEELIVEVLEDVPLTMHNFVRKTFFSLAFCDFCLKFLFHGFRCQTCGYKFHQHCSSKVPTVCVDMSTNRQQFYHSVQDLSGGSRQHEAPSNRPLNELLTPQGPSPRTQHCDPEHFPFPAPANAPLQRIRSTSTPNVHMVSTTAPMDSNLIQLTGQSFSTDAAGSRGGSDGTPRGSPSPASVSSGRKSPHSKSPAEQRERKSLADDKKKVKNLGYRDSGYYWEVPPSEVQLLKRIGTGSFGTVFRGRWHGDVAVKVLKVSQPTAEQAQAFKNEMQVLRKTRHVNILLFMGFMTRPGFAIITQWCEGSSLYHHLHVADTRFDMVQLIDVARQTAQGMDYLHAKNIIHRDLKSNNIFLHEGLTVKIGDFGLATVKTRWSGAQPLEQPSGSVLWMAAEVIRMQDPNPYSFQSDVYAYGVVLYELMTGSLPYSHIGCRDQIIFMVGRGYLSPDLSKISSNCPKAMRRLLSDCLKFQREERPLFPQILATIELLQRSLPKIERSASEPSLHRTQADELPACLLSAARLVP
Put shortly: as §1

The target in another experiment is T4, CAMK2a (Homo sapiens, UniProt Q9UQM7).
T4 construct: purchased Reaction Biology Corp
Put shortly: as §1

The next experiment has as its target T5, RON/MST1R (Homo sapiens, UniProt Q04912).
T5 construct: purchased Reaction Biology Corp
Put shortly: as §1

A further experiment deals with T6, ALK4/ACVR1B (Homo sapiens, UniProt P36896).
T6 construct: purchased Reaction Biology Corp
T6 sequence (P36896 24-505): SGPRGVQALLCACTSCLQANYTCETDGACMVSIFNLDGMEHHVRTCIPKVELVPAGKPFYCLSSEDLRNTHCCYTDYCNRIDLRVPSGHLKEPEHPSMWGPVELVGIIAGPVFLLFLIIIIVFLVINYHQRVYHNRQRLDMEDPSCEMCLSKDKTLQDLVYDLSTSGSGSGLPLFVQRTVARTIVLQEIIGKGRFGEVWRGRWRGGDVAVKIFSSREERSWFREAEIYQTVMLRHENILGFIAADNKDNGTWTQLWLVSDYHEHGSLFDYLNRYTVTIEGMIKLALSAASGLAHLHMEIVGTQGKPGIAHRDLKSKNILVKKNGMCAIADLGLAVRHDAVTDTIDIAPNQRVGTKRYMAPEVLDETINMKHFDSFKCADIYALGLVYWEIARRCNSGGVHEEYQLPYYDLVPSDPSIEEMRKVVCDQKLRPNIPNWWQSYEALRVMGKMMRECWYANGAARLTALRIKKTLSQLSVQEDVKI
Put shortly: as §1

Setting [1] is: read-out: % Enzyme Activity (relative to DMSO controls) AVG.
Where [2] appears, read: read-out: % Enzyme Activity (relative to DMSO controls) Data 1.
The mark [3] stands for this setting: read-out: % Enzyme Activity (relative to DMSO controls) Data 2.

Like-named read-outs stand apart in the source and are kept apart here.

T5 sequence (Q04912 25-1400): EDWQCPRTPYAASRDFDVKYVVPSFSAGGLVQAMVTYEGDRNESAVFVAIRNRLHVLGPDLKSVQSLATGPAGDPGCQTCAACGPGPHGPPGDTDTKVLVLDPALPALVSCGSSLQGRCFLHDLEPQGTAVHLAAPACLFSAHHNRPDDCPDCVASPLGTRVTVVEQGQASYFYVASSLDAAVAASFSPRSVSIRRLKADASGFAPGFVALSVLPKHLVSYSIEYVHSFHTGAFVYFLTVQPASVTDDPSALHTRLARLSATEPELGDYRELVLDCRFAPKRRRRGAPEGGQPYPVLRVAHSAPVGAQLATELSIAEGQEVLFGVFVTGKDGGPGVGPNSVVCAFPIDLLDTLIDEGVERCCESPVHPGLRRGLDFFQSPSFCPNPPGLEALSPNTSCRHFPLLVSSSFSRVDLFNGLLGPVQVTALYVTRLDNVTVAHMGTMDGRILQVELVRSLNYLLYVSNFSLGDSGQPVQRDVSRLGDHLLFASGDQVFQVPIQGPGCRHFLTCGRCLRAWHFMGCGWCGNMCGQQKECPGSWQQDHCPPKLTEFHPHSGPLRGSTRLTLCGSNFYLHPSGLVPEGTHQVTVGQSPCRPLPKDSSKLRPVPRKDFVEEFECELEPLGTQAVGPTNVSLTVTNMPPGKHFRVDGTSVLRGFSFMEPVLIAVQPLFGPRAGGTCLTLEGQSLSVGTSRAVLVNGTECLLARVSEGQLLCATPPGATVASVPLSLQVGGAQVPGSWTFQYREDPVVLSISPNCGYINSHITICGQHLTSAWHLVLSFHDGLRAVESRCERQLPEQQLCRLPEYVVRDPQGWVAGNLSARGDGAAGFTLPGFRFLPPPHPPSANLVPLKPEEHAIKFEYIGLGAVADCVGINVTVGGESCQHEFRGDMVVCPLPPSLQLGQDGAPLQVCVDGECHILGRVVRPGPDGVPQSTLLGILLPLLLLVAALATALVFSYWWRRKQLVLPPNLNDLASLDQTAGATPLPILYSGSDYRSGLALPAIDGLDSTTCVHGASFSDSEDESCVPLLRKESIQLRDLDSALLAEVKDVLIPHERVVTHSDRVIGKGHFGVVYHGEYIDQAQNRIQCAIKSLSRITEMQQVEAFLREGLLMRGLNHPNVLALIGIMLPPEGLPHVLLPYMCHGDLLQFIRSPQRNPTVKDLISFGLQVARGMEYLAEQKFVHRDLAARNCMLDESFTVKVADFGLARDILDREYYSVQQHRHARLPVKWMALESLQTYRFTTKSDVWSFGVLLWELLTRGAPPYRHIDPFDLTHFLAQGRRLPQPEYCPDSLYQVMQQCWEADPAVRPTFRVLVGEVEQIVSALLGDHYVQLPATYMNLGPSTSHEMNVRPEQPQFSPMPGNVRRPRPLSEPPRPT
T2 sequence (Q05655 whole entry): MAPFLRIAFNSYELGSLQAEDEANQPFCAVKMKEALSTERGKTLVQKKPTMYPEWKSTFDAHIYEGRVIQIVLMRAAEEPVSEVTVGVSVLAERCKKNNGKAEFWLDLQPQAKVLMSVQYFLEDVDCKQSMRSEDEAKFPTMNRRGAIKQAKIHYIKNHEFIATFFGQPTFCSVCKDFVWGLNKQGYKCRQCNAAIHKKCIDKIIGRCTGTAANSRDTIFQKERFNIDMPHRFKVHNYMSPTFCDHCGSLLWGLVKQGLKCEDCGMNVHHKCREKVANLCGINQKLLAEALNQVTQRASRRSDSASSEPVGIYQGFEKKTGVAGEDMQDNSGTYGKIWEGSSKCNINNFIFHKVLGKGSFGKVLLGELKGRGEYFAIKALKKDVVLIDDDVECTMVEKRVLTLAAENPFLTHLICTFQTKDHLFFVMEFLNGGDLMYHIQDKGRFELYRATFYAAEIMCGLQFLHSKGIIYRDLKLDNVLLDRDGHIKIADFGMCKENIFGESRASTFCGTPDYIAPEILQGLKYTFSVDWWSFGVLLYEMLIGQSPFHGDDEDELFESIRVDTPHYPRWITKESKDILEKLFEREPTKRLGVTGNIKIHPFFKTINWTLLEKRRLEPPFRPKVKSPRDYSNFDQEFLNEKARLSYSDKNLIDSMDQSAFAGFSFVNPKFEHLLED
T4 sequence (Q9UQM7 whole entry): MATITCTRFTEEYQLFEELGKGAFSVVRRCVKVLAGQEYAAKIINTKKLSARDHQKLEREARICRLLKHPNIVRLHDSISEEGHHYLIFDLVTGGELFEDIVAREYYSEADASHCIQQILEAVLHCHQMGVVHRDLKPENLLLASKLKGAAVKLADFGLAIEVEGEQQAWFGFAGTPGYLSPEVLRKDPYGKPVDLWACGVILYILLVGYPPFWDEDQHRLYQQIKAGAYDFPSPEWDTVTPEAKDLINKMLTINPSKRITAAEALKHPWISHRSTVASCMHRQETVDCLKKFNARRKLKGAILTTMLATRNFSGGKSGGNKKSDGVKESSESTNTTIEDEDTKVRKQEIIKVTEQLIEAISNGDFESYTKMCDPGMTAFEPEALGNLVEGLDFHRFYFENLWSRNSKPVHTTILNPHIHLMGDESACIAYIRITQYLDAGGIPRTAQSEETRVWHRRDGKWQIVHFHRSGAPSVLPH

On to `CC(C)(C)C(=O)N1N=CC[C@H]1c1ccccc1` [GSK′963], for which the remaining activity at 10 µM stood at 92.8% at NEK9 (setting [1]); 92.1% at NEK9 (setting [2]); 93.5% on NEK9 (setting [3]); 106% at PKCd (setting [1]); 106% at PKCd (setting [2]); 107% on PKCd (setting [3]). Further, the remaining activity at 10 µM at ARAF (setting [1]) came out at 93.7%; at ARAF (setting [2]), 94.6%; on ARAF (setting [3]) it was 92.9%; on CAMK2a (setting [1]), 102%; on CAMK2a (setting [2]), 101%; on CAMK2a (setting [3]), 102%. Moreover, the remaining activity at 10 µM was found to be 104% at RON/MST1R (setting [1]); 106% at RON/MST1R (setting [2]); 102% on RON/MST1R (setting [3]); 103% at ALK4/ACVR1B (setting [1]); 104% at ALK4/ACVR1B (setting [2]); 102% on ALK4/ACVR1B (setting [3]).

Values taken from publication PMC4979471 (Cell Death Discovery, 2015).
